ChEMBL document CHEMBL4828766 (J Med Chem, 2021)
Square brackets hold non-standard residues; d marks the D form. Peptide text beside a SMILES is read from it. dPhe(4-I) = N[C@H](Cc1ccc(I)cc1)C(=O)O; 2Nal = N[C@@H](Cc1ccc2ccccc2c1)C(=O)O; d2Nal = N[C@H](Cc1ccc2ccccc2c1)C(=O)O

Key:
Assay type in all cases: functional, cell-based
[1] = molecular target: Melanocyte-stimulating hormone receptor (Mus musculus) (UniProt Q01727); assay: Partial agonist activity at mouse MC1R expressed in HEK293 cells assessed as induction of cAMP level at 100 uM incubated for 2 hr by alphaScreen assay relative to control
Melanocortin receptor 4 [2] = molecular target: T1, Melanocortin receptor 4 (Mus musculus, UniProt P56450); assay: Antagonist activity at mouse melanocortin receptor 4 expressed in HEK293 cells assessed as inhibition of NDP-MSH-induced cAMP accumulation incubated for 2 hrs by cAMP Alpha-screen assay based Schild analysis; settings: for Kb: read-out: pA2 (converted)
[3] = molecular target: Melanocortin receptor 5 (Mus musculus) (UniProt P41149); assay: Agonist activity at mouse MC5R expressed in HEK293 cells assessed as induction of cAMP level at 100 uM incubated for 2 hr by alphaScreen assay relative to control
[4] = molecular target: Melanocortin receptor 4 (Mus musculus) (UniProt P56450); assay: Agonist activity at mouse MC4R expressed in HEK293 cells assessed as induction of cAMP level at 100 uM incubated for 2 hr by alphaScreen assay relative to control
Melanocortin receptor 3 [5] = molecular target: T2, Melanocortin receptor 3 (Mus musculus, UniProt P33033); assay: Antagonist activity at mouse melanocortin receptor 3 expressed in HEK293 cells assessed as inhibition of NDP-MSH-induced cAMP accumulation incubated for 2 hrs by cAMP Alpha-screen assay based Schild analysis; settings: for Kb: read-out: pA2 (converted)
[6] = molecular target: Melanocortin receptor 3 (Mus musculus) (UniProt P33033); assay: Agonist activity at mouse MC3R expressed in HEK293 cells assessed as induction of cAMP level at 100 uM incubated for 2 hr by alphaScreen assay relative to control
[7] = molecular target: Melanocyte-stimulating hormone receptor (Mus musculus) (UniProt Q01727); assay: Agonist activity at mouse MC1R expressed in HEK293 cells assessed as induction of cAMP level at 100 uM incubated for 2 hr by alphaScreen assay relative to NDP-MSH
Melanocortin receptor 4 [8] = molecular target: T1, Melanocortin receptor 4; assay: Agonist activity at mouse MC4R expressed in HEK293 cells assessed as induction of cAMP level incubated for 2 hr by alphaScreen assay
Melanocortin receptor 3 [9] = molecular target: T2, Melanocortin receptor 3; assay: Agonist activity at mouse MC3R expressed in HEK293 cells assessed as induction of cAMP level incubated for 2 hr by alphaScreen assay
[10] = molecular target: Melanocyte-stimulating hormone receptor (Mus musculus, UniProt Q01727); assay: Agonist activity at mouse MC1R expressed in HEK293 cells assessed as induction of cAMP level at 100 uM incubated for 2 hr by alphaScreen assay
Melanocortin receptor 5 = Melanocortin receptor 5 (Mus musculus, UniProt P41149); assay: Agonist activity at mouse MC5R expressed in HEK293 cells assessed as induction of cAMP level at 100 uM incubated for 2 hr by alphaScreen assay
Chain of Melanocortin receptor 5 (P41149 whole entry): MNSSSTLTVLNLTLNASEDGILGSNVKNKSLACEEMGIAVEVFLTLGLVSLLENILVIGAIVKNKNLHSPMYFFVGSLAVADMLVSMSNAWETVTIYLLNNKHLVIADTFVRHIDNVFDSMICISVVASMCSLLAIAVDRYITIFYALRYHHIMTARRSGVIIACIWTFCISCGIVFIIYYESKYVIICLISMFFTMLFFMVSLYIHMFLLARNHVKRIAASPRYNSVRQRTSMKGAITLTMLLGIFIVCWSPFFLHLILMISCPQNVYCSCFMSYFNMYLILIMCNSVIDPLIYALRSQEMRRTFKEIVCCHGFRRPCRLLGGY

T2 sequence (P33033 whole entry): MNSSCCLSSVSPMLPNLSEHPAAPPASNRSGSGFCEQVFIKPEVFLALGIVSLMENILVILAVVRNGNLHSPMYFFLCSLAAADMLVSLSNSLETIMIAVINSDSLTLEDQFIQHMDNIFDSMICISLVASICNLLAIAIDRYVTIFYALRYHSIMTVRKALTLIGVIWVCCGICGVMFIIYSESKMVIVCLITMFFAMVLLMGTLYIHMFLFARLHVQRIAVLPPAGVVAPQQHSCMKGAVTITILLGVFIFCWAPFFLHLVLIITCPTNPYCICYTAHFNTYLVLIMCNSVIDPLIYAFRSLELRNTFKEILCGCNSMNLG
Chain of Melanocortin receptor 3 (Mus musculus) (P33033 whole entry): as above
T1 sequence (P56450 whole entry): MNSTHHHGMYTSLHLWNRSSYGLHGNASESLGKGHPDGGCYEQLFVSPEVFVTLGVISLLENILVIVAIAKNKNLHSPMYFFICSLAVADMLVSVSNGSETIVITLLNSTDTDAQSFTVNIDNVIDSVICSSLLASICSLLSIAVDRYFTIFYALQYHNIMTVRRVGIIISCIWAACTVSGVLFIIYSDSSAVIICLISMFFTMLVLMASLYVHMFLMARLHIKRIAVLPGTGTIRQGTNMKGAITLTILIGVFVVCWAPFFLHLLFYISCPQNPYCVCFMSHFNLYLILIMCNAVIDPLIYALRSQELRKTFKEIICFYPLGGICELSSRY
Chain of Melanocortin receptor 4 (Mus musculus) (P56450 whole entry): as above
Chain of Melanocortin receptor 5 (Mus musculus) (P41149 whole entry): as the sequence (P41149 whole entry) above
Chain of Melanocyte-stimulating hormone receptor (Mus musculus) (Q01727 whole entry, looked up): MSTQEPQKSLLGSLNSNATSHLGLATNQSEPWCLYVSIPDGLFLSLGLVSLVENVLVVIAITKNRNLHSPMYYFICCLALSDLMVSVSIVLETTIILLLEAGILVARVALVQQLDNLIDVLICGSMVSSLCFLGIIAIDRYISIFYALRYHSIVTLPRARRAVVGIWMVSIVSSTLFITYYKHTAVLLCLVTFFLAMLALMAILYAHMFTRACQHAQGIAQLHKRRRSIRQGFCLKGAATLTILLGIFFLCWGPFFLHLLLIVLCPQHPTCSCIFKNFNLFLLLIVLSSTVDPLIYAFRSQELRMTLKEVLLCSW
Chain of Melanocyte-stimulating hormone receptor (Q01727 whole entry): as the sequence (Q01727 whole entry, looked up) above

CC(=O)N[C@H](Cc1ccc(I)cc1)C(=O)N[C@@H](CCCNC(=N)N)C(=O)N[C@H](Cc1ccc2ccccc2c1)C(=O)N[C@H](CCCCN)C(N)=O (Ac-[dPhe(4-I)]R[d2Nal][dK]-NH2) gave an Activity [1] of 30%.
CC(=O)N[C@H](Cc1ccc2ccccc2c1)C(=O)N[C@@H](CCCNC(=N)N)C(=O)N[C@@H](Cc1ccc2ccccc2c1)C(=O)N[C@H](Cc1ccc2ccccc2c1)C(N)=O (Ac-[d2Nal]R[2Nal][d2Nal]-NH2) showed a Kb (Melanocortin receptor 4 [2]) of 200 nM, an Activity [3] of 25% and an Activity [4] of 30%. It also gave a Kb (Melanocortin receptor 3 [5]) greater than 3160 nM and an Activity [6] of 30%.
In the case of CC(=O)N[C@H](Cc1ccc2ccccc2c1)C(=O)N[C@H](Cc1ccc2ccccc2c1)C(=O)N[C@@H](Cc1c[nH]c2ccccc12)C(=O)N[C@@H](CCCNC(=N)N)C(N)=O (Ac-[d2Nal][d2Nal]WR-NH2), the Activity ([7]; filed as agonist) is reported as 45%, the Kb (Melanocortin receptor 4 [2]) is reported as greater than 3160 nM and the Activity ([3]; filed as agonist) is reported as 45%. For the same compound, the Activity ([4]; filed as agonist) was 60%, the Kb (Melanocortin receptor 3 [5]) was greater than 3160 nM and the Activity [6] was 35%.
Work on CC(=O)N[C@H](Cc1ccc2ccccc2c1)C(=O)N[C@H](Cc1ccc2ccccc2c1)C(=O)N[C@@H](Cc1ccc2ccccc2c1)C(=O)N[C@@H](CCCNC(=N)N)C(N)=O yielded an Activity ([7]; filed as agonist) of 55%, a Kb (Melanocortin receptor 4 [2]) greater than 3160 nM and an EC50 (Melanocortin receptor 4 [8]) greater than 100000 nM. The EC50 (Melanocortin receptor 3 [9]) was greater than 100000 nM, the Activity ([3]; filed as agonist) was 40% and the Kb (Melanocortin receptor 3 [5]) was greater than 3160 nM.
For CC(=O)N[C@H](Cc1ccc(I)cc1)C(=O)N[C@@H](CCCNC(=N)N)C(=O)N[C@H](Cc1ccc(I)cc1)C(=O)N[C@H](Cc1ccc2ccccc2c1)C(N)=O (Ac-[dPhe(4-I)]R[dPhe(4-I)][d2Nal]-NH2), the Ki (Melanocortin receptor 4 [2]) was 250 nM, the Kb (Melanocortin receptor 4 [2]) was 251 nM and the EC50 [10] was 1100 nM. It also gave an Activity ([3]; filed as agonist) of 65%, an Activity ([4]; filed as agonist) of 40% and a Ki (Melanocortin receptor 3 [5]) of 500 nM. For the same compound, the Kb (Melanocortin receptor 3 [5]) was 501 nM and the Activity ([6]; filed as agonist) was 40%.
CC(=O)N[C@H](Cc1ccc2ccccc2c1)C(=O)N[C@@H](CCCNC(=N)N)C(=O)N[C@@H](Cc1ccc2ccccc2c1)C(=O)N[C@@H](CCCNC(=N)N)C(N)=O (Ac-[d2Nal]R[2Nal]R-NH2) was tested, and the EC50 (Melanocortin receptor 5) was greater than 100000 nM, the Kb (Melanocortin receptor 4 [2]) was 1.58 nM and the EC50 [10] was greater than 100000 nM. The EC50 (Melanocortin receptor 3 [9]) was greater than 100000 nM, the Activity [4] was 30% and the Kb (Melanocortin receptor 3 [5]) was 100 nM.
In the case of CC(=O)N[C@H](Cc1ccc2ccccc2c1)C(=O)N[C@@H](CCCNC(=N)N)C(=O)N[C@@H](Cc1c[nH]c2ccccc12)C(=O)N[C@H](Cc1ccc2ccccc2c1)C(N)=O (Ac-[d2Nal]RW[d2Nal]-NH2), the EC50 (Melanocortin receptor 5) is reported as greater than 100000 nM, the Kb (Melanocortin receptor 4 [2]) is reported as 100 nM and the Activity [4] is reported as 30%. It also gave a Kb (Melanocortin receptor 3 [5]) of 2000 nM and an Activity ([6]; filed as agonist) of 40%.
Compound CC(=O)N[C@H](Cc1ccc2ccccc2c1)C(=O)N[C@@H](CCCNC(=N)N)C(=O)N[C@H](Cc1ccc(I)cc1)C(=O)N[C@H](Cc1ccc2ccccc2c1)C(N)=O (Ac-[d2Nal]R[dPhe(4-I)][d2Nal]-NH2) has an Activity ([3]; filed as agonist) of 40% and an Activity [4] of 30%.
CC(=O)N[C@H](Cc1ccc(I)cc1)C(=O)N[C@@H](CCCNC(=N)N)C(=O)N[C@@H](Cc1c[nH]c2ccccc12)C(=O)N[C@H](Cc1ccc2ccccc2c1)C(N)=O (Ac-[dPhe(4-I)]RW[d2Nal]-NH2) showed an EC50 (Melanocortin receptor 5) greater than 100000 nM, an Activity ([7]; filed as agonist) of 45% and a Ki (Melanocortin receptor 4 [2]) of 25 nM. For the same compound, the Kb (Melanocortin receptor 4 [2]) was 25.1 nM, the Activity [4] was 35% and the Ki (Melanocortin receptor 3 [5]) was 1000 nM. For the same compound, the Kb (Melanocortin receptor 3 [5]) was 1000 nM and the Activity [6] was 25%.
Work on CC(=O)N[C@H](Cc1ccc(I)cc1)C(=O)N[C@@H](CCCNC(=N)N)C(=O)N[C@H](Cc1ccc2ccccc2c1)C(=O)N[C@H](Cc1ccc2ccccc2c1)C(N)=O (Ac-[dPhe(4-I)]R[d2Nal][d2Nal]-NH2) yielded an Activity ([7]; filed as agonist) of 80%, a Ki (Melanocortin receptor 4 [2]) of 200 nM and a Kb (Melanocortin receptor 4 [2]) of 200 nM. The Activity [3] was 20%, the Activity ([4]; filed as agonist) was 45% and the Ki (Melanocortin receptor 3 [5]) was 790 nM. It also gave a Kb (Melanocortin receptor 3 [5]) of 794 nM and an Activity ([6]; filed as agonist) of 45%.
In the case of CC(=O)N[C@H](Cc1ccc2ccccc2c1)C(=O)N[C@H](Cc1ccc2ccccc2c1)C(=O)N[C@H](Cc1ccc2ccccc2c1)C(=O)N[C@@H](CCCNC(=N)N)C(N)=O, the Activity [7] is reported as 30%, the Kb (Melanocortin receptor 4 [2]) is reported as greater than 3160 nM and the Activity [4] is reported as 25%. It also gave a Kb (Melanocortin receptor 3 [5]) greater than 3160 nM and an Activity [6] of 35%.
